pEC50: −log10 of the molar value.
Molecular target: Small conductance calcium-activated potassium channel protein 2, KCNN2 (Homo sapiens) (UniProt Q9H2S1)
Assay: Binding affinity to SK2 (unknown origin)

Chain of Small conductance calcium-activated potassium channel protein 2, KCNN2 (Homo sapiens) (Q9H2S1 whole entry, looked up): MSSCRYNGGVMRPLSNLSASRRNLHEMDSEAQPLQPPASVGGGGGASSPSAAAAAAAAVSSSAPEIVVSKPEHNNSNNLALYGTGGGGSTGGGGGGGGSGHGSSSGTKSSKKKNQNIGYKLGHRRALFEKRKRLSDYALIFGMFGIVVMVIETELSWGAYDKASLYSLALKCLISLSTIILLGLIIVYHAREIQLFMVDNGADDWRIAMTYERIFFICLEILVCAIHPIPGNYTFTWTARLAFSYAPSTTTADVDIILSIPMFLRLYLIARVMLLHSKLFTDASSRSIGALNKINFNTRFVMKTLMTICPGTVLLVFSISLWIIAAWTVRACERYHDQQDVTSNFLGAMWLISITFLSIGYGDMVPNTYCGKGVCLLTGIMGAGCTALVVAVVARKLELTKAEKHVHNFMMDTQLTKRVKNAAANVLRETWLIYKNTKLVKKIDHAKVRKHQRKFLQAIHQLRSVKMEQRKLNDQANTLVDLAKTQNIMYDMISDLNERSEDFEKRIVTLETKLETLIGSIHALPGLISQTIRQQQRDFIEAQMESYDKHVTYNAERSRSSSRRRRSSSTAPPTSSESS

`N#Cc1ccc(-c2n[nH]c3cc(OC(F)(F)F)ccc23)cc1` was tested. Which pEC50 did it give?
The pEC50 was less than 5.00.

How did the pEC50 turn out when `FC(F)(F)c1ccc2c(Nc3ccc(Cl)nc3)n[nH]c2c1` was run?
The pEC50 was less than 5.00.

Reference: BindingDB's records for doi:10.1021/acsmedchemlett.7b00140 (Pfizer, 2017)
